Numbers after ± are expanded uncertainties.
What was measured:
[1] = wn = mass fraction of the nth substance listed; conditions: 101 kPa, Liquid; for speed of sound: Sing-around technique in a fixed-path interferometer
[2] = mn = molality of the nth substance listed, in mol/kg; conditions: 283.15 K; 101 kPa; Liquid; m2 = 0

CCCO [propan-1-ol] + O
[1]
Conditions | mass density, 283.15 K [kg/m3] | mass density, 288.15 K [kg/m3] | mass density, 293.15 K [kg/m3] | mass density, 298.15 K [kg/m3] | mass density, 303.15 K [kg/m3] | speed of sound, 283.15 K [m/s] | speed of sound, 288.15 K [m/s] | speed of sound, 293.15 K [m/s] | speed of sound, 298.15 K [m/s] | speed of sound, 303.15 K [m/s]
w1 = 0.05 | 992.405 ± 0.29 | 991.687 ± 0.31 | 990.671 ± 0.31 | 989.387 ± 0.31 | 987.86 ± 0.29 | 1499 ± 1.1 | 1512.2 ± 1.1 | 1523.9 ± 1.1 | 1533.8 ± 1.1 | 1542.2 ± 1.1
w1 = 0.1 | 987.187 ± 0.29 | 986.194 ± 0.29 | 984.913 ± 0.29 | 983.372 ± 0.29 | 981.595 ± 0.29 | 1548.6 ± 1.1 | 1556.5 ± 1.1 | 1563.3 ± 1.1 | 1568.7 ± 1.1 | 1572.9 ± 1.1
w1 = 0.15 | 982.892 ± 0.3 | 981.496 ± 0.31 | 979.828 ± 0.31 | 977.921 ± 0.31 | 975.791 ± 0.31 | 1585.2 ± 1.1 | 1587.6 ± 1.1 | 1589 ± 1.1 | 1589.2 ± 1.1 | 1588.6 ± 1.1

O [water] + O=P([O-])([O-])[O-].[Na+].[Na+].[Na+]
Conditions | mass density [kg/m3]
[2] | 999.699 ± 0.26

From the NIST ThermoML archive (doi:10.1016/j.fluid.2008.01.004)
